# Reference: ChEMBL document CHEMBL5614416, “Discovery of novel thiophene[3,2-d]pyrimidine-based tubulin inhibitors with enhanced antitumor efficacy for combined use with anti-pd-l1 immunotherapy in melanoma” (Eur J Med Chem, 2024)
# Activity calls are given as the source filed them. The rule behind the calls is not given here.
# How the values were obtained:
# [1] = test system: B16-F10; test: Induction of apoptosis in mouse B16-F10 cells assessed as decrease in Bcl-2 level upto 30 nM incubated for 24 hrs by Western blot analysis; assay type: functional, cell-based
# [2] = test system: B16-F10; test: Induction of apoptosis in mouse B16-F10 cells assessed as necrotic cells at 2 nM incubated for 12 hrs by Annexin V-FITC/PI staining based flow cytometry (reference value: 0.25 %); assay type: functional
# [3] = test system: B16-F10; test: Induction of cell cycle arrest in mouse B16-F10 cells assessed as accumulation of cells at G2 phase at 0.5 nM incubated for 12 hrs by flow cytometry (reference value: 13.6 %); assay type: functional
# [4] = test system: B16-F10; test: Induction of cell cycle arrest in mouse B16-F10 cells assessed as accumulation of cells at G1 phase at 2 nM incubated for 12 hrs by flow cytometry (reference value: 52.0 %); assay type: functional
# [5] = test system: B16-F10; test: Induction of apoptosis in mouse B16-F10 cells assessed as increase in Bax level upto 30 nM incubated for 24 hrs by Western blot analysis; assay type: functional, cell-based
# [6] = test system: MCF7; test: Inhibition of cell migration in human MCF7 cells assessed as migration rate at 4 nM incubated for 24 hrs by wound healing assay (reference value: 18.1 %); assay type: functional; design: scale not given: the % may be the effect or the level left
# [7] = test system: B16-F10; test: Induction of apoptosis in mouse B16-F10 cells assessed as viable cells at 1 nM incubated for 12 hrs by Annexin V-FITC/PI staining based flow cytometry (reference value: 93.6 %); assay type: functional; conditions: read-out: Activity
# [8] = Toxicity in C57 mouse xenografted with mouse B16-F10 cells assessed as MPV level at 3.5 mg/kg, ip qd for 12 days in presence of NP-19 by biochemical analysis (reference value: 6.200 to 15.000); assay type: organism-based; conditions: in vivo, 288 h, time 12 day
# [9] = Toxicity in C57 mouse xenografted with mouse B16-F10 cells assessed as MCHC level at 3.5 mg/kg, ip qd for 12 days in presence of NP-19 by biochemical analysis (reference value: 324.000 to 683.000 g/L); assay type: organism-based; conditions: in vivo, 288 h, time 12 day
# [10] = Toxicity in C57 mouse xenografted with mouse B16-F10 cells assessed as morphological abnormality in kidney at 7 mg/kg, ip qd for 12 days by H and E staining based analysis; assay type: organism-based; conditions: in vivo, 288 h, time 12 day
# [11] = test system: B16-F10; test: Induction of apoptosis in mouse B16-F10 cells assessed as early apoptotic cells at 1 nM incubated for 12 hrs by Annexin V-FITC/PI staining based flow cytometry (reference value: 3.81 %); assay type: functional
# [12] = test system: B16-F10; test: Induction of cell cycle arrest in mouse B16-F10 cells assessed as accumulation of cells at G1 phase at 0.5 nM incubated for 12 hrs by flow cytometry (reference value: 52.0 %); assay type: functional
# [13] = test system: B16-F10; test: Antitumor activity against mouse B16-F10 cells xenografted in C57 mouse at 7 mg/kg, ip qd for 12 days relative to control; assay type: functional; conditions: B16-F10, 288 h, time 12 day, read-out: TGI
# [14] = Toxicity in C57 mouse xenografted with mouse B16-F10 cells assessed as eosinophil level at 7 mg/kg, ip qd for 12 days by biochemical analysis (reference value: 0.700 to 1.000 %); assay type: organism-based; conditions: in vivo, 288 h, time 12 day
# [15] = test system: B16-F10; test: Inhibition of cell migration in mouse B16-F10 cells assessed as migration rate at 1 nM incubated for 24 hrs by wound healing assay (reference value: 61.1 %); assay type: functional; design: scale not given: the % may be the effect or the level left
# [16] = Toxicity in C57 mouse xenografted with mouse B16-F10 cells assessed as WBC count at 3.5 mg/kg, ip qd for 12 days in presence of NP-19 by biochemical analysis (reference value: 8.240 to 8.340 10^9/L); assay type: organism-based; conditions: in vivo, 288 h, time 12 day
# [17] = test system: MCF7; test: Inhibition of cell migration in human MCF7 cells assessed as migration rate at 2 nM incubated for 24 hrs by wound healing assay (reference value: 18.1 %); assay type: functional; design: scale not given: the % may be the effect or the level left
# [18] = test system: MCF7; test: Induction of apoptosis in human MCF7 cells assessed as decrease in Bcl-2 level upto 30 nM incubated for 24 hrs by Western blot analysis; assay type: functional, cell-based
# [19] = Toxicity in C57 mouse xenografted with mouse B16-F10 cells assessed as monocytes count at 3.5 mg/kg, ip qd for 12 days in presence of NP-19 by biochemical analysis (reference value: 0.080 to 0.610 10^9/L); assay type: organism-based; conditions: in vivo, 288 h, time 12 day
# [20] = Toxicity in C57 mouse xenografted with mouse B16-F10 cells assessed as body weight change at 3.5 mg/kg, ip qd for 12 days in presence of NP-19; assay type: organism-based; conditions: in vivo, 288 h, time 12 day
# [21] = test system: B16-F10; test: Induction of cell cycle arrest in mouse B16-F10 cells assessed as accumulation of cells at G1 phase at 1 nM incubated for 12 hrs by flow cytometry (reference value: 52.0 %); assay type: functional
# [22] = test system: B16-F10; test: Induction of cell cycle arrest in mouse B16-F10 cells assessed as accumulation of cells at G2 phase at 1 nM incubated for 12 hrs by flow cytometry (reference value: 13.6 %); assay type: functional
# [23] = test system: B16-F10; test: Inhibition of cell migration in mouse B16-F10 cells assessed as migration rate at 4 nM incubated for 24 hrs by wound healing assay (reference value: 61.1 %); assay type: functional; design: scale not given: the % may be the effect or the level left
# [24] = test system: MCF7; test: Antiproliferative activity against human MCF7 cells incubated for 48 hrs by MTT assay; assay type: functional, cell-based; conditions: MCF7, 48 h
# [25] = Toxicity in C57 mouse xenografted with mouse B16-F10 cells assessed as morphological abnormality in heart at 3.5 mg/kg, ip qd for 12 days in presence of NP-19 by H and E staining based analysis; assay type: organism-based; conditions: in vivo, 288 h, time 12 day
# [26] = Inhibition of pig brain tubulin polymerization by spectrophotometric method
# [27] = test system: HepG2; test: Antiproliferative activity against human HepG2 cells incubated for 48 hrs by MTT assay; assay type: functional, cell-based; conditions: HepG2, 48 h
# [28] = test system: B16-F10; test: Induction of apoptosis in mouse B16-F10 cells assessed as necrotic cells at 1 nM incubated for 12 hrs by Annexin V-FITC/PI staining based flow cytometry (reference value: 0.25 %); assay type: functional
# [29] = Toxicity in C57 mouse xenografted with mouse B16-F10 cells assessed as lymphocytes level at 7 mg/kg, ip qd for 12 days by biochemical analysis (reference value: 7.300 to 65.500 %); assay type: organism-based; conditions: in vivo, 288 h, time 12 day
# [30] = test system: B16-F10; test: Antitumor activity against mouse B16-F10 cells xenografted in C57 mouse assessed as suppression of tumor growth at 7 mg/kg, ip qd for 12 days; assay type: functional, organism-based; conditions: time 12.0 day
# [31] = test system: MCF7; test: Inhibition of cell migration in human MCF7 cells assessed as reduction in wound closure incubated for 24 hrs by wound healing assay; assay type: functional, cell-based
# [32] = Toxicity in C57 mouse xenografted with mouse B16-F10 cells assessed as RDW-CV at 7 mg/kg, ip qd for 12 days by biochemical analysis (reference value: 14.300 to 14.300); assay type: organism-based; conditions: in vivo, 288 h, time 12 day
# [33] = Toxicity in C57 mouse xenografted with mouse B16-F10 cells assessed as morphological abnormality in liver at 3.5 mg/kg, ip qd for 12 days in presence of NP-19 by H and E staining based analysis; assay type: organism-based; conditions: in vivo, 288 h, time 12 day
# [34] = Toxicity in C57 mouse xenografted with mouse B16-F10 cells assessed as PCT level at 3.5 mg/kg, ip qd for 12 days in presence of NP-19 by biochemical analysis (reference value: 0.425 to 5.300); assay type: organism-based; conditions: in vivo, 288 h, time 12 day
smiles,measurement,setting,value
Cc1nc(N(C)c2ccc3c(ccn3C)c2)c2sccc2n1,Activity,[1],Active
same,Activity,[2],1.76%
same,Activity,[3],58.9%
same,Activity,[4],5.24%
same,Activity,[5],Active
same,Activity,[6],3.23%
same,viability at 0.001 µM,[7],77.1%
same,Activity,[8],6
same,Activity,[9],343 g/L
same,Activity,[10],Non-Toxic
same,Activity,[11],11%
same,Activity,[12],21.3%
same,inhibition in vivo at 7 mg/kg,[13],63.3%
same,Activity,[14],0.3%
same,Activity,[15],57.5%
same,Activity,[16],4.22 10^9/L
same,Activity,[17],8.84%
same,Activity,[18],Active
same,Activity,[19],0.06 10^9/L
same,Activity,[20],Non-Toxic
same,Activity,[21],13.8%
same,Activity,[22],61.9%
same,Activity,[23],5.23%
same,IC50,[24],9.53 nM
same,Activity,[25],Non-Toxic
same,IC50,[26],2540 nM
same,IC50,[27],9.37 nM
same,Activity,[28],4.4%
same,Activity,[29],2.2%
same,Activity,[30],Active
same,inhibition,[31],Dose-Dependent Effect
same,Activity,[32],14.2
same,Activity,[33],Non-Toxic
same,Activity,[34],0.179
